Source: article PMC6915135, “Simultaneous Quantification of Brigatinib and Brigatinib-Analog in Rat Plasma and Brain Homogenate by LC-MS/MS: Application to Comparative Pharmacokinetic and Brain Distribution Studies” (International Journal of Analytical Chemistry, 2019)

Experiments:
[1] = Stability of QC samples in rat plasma under various storage conditions; assay type: in vitro ADME; settings: for Stability under the storage conditions investigated: rat plasma and brain homogenate QC samples, 6 h ambient, −20°C 10 d, three freeze-thaw cycles, 24 h at 4°C autosampler; for Measured conc. after ambient temperature for 6 h / Measured conc. after autosampler at 4°C for 24 h / Measured conc. after three freeze-thaw cycles / Measured conc. after −20°C for 10 d: rat plasma, n = 6
Protocol: (§1) The stability of brigatinib and brigatinib-analog was evaluated by analysis of low and high concentration levels of QC samples under different conditions (n = 6). The temperature and timing conditions were as follows: 6 h at ambient temperature, stored at −20°C for 10 d, three freeze-thaw cycles, and 24 h at 4°C in an autosampler. The measured concentrations were all within acceptable limits (±15% of the nominal concentrations) during the entire validation. […] Carryover was evaluated by determining the peak areas for brigatinib and brigatinib-analog by injecting blank matrix samples sequentially after the highest calibration standard sample injection. Furthermore, no carryover effect was obtained in this study.

[2] = Pharmacokinetic study in rats after single oral administration (plasma, LC-MS/MS); assay type: in vivo, male Sprague Dawley rats; settings: 5 mg/kg single oral, male SD rats, mean ± SD; for Vd (apparent volume of distribution) / AUC(0-t) / Cmax / MRT / Tmax / half-life: n = 6; for AUC(0-t) / Cmax / MRT / Tmax / half-life / CL/F: Sprague Dawley, rat; for CL/F: n = 6, read-out: CL (CLz/F)
Protocol: (§2) Seventy-two male Sprague Dawley rats weighing 180–220 g (7-8 weeks old, Certificate no. SCXK (Shandong) 2014-0007) were supplied by Shandong Laboratory Animal Center, Shandong First Medical University & Shandong Academy of Medical Sciences. All rats were kept in plastic cages with 12 h day/night cycle under controlled temperature (about 23–25°C) and fed with standard laboratory rat diet and water ad libitum. All the animal welfare and experimental procedures were approved by the Animal Ethics Committee at the Institute of Materia Medica, Shandong First Medical University & Shandong Academy of Medical Sciences (Jinan, China) and strictly in accordance with the guide for the care and use of laboratory animals (National Research Council of USA, 1996).
For the pharmacokinetic studies, after fasting with free access to water for at least 12 h, twelve rats were randomly divided into two groups (n = 6). The brigatinib and brigatinib-analog were both dissolved in ethanol-0.5% methylcellulose (1 : 19) for dosing. The two group rats were intragastrically administered with brigatinib and brigatinib-analog at the same dose of 5 mg/kg, respectively.
Blood samples, about 100 μL of each, were placed in heparinized Eppendorf tubes predose and at 5, 15, 30, 60, 120, 180, 240, 300, 360, 480, 720, and 1,440 min postdose from the jugular vein of rats. The blood samples were immediately centrifuged at 3,500 rpm for 15 min at 4°C, and the plasma samples were transferred carefully from each collection and stored at −20°C until analysis.
(§3) Experimental data were expressed as mean ± standard deviation (SD). Drug and Statistics 2.0 (DAS 2.0) software package (Mathematical Pharmacology Professional Committee of China, Shanghai, China) was used for estimating pharmacokinetic and brain distribution parameters by a noncompartmental method. Statistical analyses were performed with statistical software IBM SPSS Statistics 20.0 (IBM Corporation, Armonk, NY, USA). Differences between two groups were evaluated by the t-test. A value of p < 0.05 was considered as statistically significant.

[3] = Stability of QC samples in rat brain homogenate under various storage conditions; assay type: in vitro ADME; settings: n = 6
Protocol: as §1

[4] = Brain distribution study in rats after single oral administration (brain homogenate, LC-MS/MS); assay type: in vivo, male Sprague Dawley rats; settings: for blood-brain barrier penetration / Kp: 5 mg/kg oral, rats; for Cmax / MRT / Tmax / half-life / Kp: Sprague Dawley, rat; for Cmax / MRT / Tmax / half-life / AUC(0–t): brain, 5 mg/kg single oral, male SD rats, mean ± SD, n = 6; for Kp: male, average AUC(0–t) brain to plasma, 1 g brain taken as 1 mL plasma, read-out: ratio of AUCbrain/AUCplasma
Protocol: as §2
For the brain distribution studies, the remaining sixty rats were randomly divided into ten groups (n = 6, per group). The distributions of brigatinib and brigatinib-analog in the rat brain were also investigated at the dose of 5 mg/kg after single oral administration to rats. The whole brain was excised immediately at 5, 60, 240, 480, and 1,440 min postdose, thoroughly rinsed with 0.9% saline solution, and wiped with a filter paper. Each brain sample was weighed accurately and homogenized in double distilled water (1 : 5, w/v) by using a tissue homogenizer (IKA, Germany) and frozen at −20°C until analysis.
as §3

[5] = test system: the triple mutation; design: method as in PMID 28287083, PMID 27780853; settings: read-out: IC50 against the triple mutation; cited from earlier work

Row | SMILES | Stability under the storage conditions investigated [1] | Measured conc. after ambient temperature for 6 h ([1]; spiked 2.0 ng/mL) | Measured conc. after autosampler at 4°C for 24 h ([1]; spiked 2.0 ng/mL) | Measured conc. after three freeze-thaw cycles ([1]; spiked 2.0 ng/mL) | Measured conc. after −20°C for 10 d ([1]; spiked 2.0 ng/mL) | Measured conc. after ambient temperature for 6 h ([1]; spiked 1600 ng/mL) | Measured conc. after autosampler at 4°C for 24 h ([1]; spiked 1600 ng/mL) | Measured conc. after three freeze-thaw cycles ([1]; spiked 1600 ng/mL) | Measured conc. after −20°C for 10 d ([1]; spiked 1600 ng/mL) | Vd (apparent volume of distribution) [2] | AUC(0-t) [2] | Cmax [2] | MRT [2] | Tmax [2] | half-life [2] | CL/F [2] | Measured conc. after ambient temperature for 6 h ([3]; spiked 1.0 ng/mL) | Measured conc. after autosampler at 4°C for 24 h ([3]; spiked 1.0 ng/mL) | Measured conc. after three freeze-thaw cycles ([3]; spiked 1.0 ng/mL) | Measured conc. after −20°C for 10 d ([3]; spiked 1.0 ng/mL) | further results
1 | COc1cc(N2CCC(N(C)C)CC2)ccc1Nc1ncc(Cl)c(Nc2ccccc2P(C)(C)=O)n1 [Brigatinib-analog] | stable | 2.03 ± 0.11 ng/mL | 1.89 ± 0.12 ng/mL | 2.01 ± 0.09 ng/mL | 1.95 ± 0.12 ng/mL | 1638.54 ± 97.76 ng/mL | 1582.61 ± 101.88 ng/mL | 1578.36 ± 125.20 ng/mL | 1705.49 ± 109.83 ng/mL | 3.43 ± 0.96 L/kg | 4370 ng·h/mL | 734 ± 83.1 ng/mL | 5.48 h | 4.33 h | 2.01 ± 0.496 h | 21 ± 6 mL/min/kg | 1.04 ± 0.05 ng/mL | 0.97 ± 0.06 ng/mL | 0.98 ± 0.07 ng/mL | 1.07 ± 0.11 ng/mL | Measured conc. after ambient temperature for 6 h ([3]; spiked 800 ng/mL): 828.64 ± 66.54 ng/mL; Measured conc. after autosampler at 4°C for 24 h ([3]; spiked 800 ng/mL): 783.28 ± 32.39 ng/mL; Measured conc. after three freeze-thaw cycles ([3]; spiked 800 ng/mL): 833.68 ± 56.59 ng/mL; Measured conc. after −20°C for 10 d ([3]; spiked 800 ng/mL): 846.09 ± 53.83 ng/mL; blood-brain barrier penetration [4]: could both penetrate the blood-brain barrier; Cmax [4]: 45.8 ± 11.8 ng/g; MRT [4]: 6.32 h; Tmax [4]: 4 h; half-life [4]: 4.27 ± 0.667 h; AUC(0–t) [4]: 23196.08 ± 4932.95^∗ ng/g·min; Kp [4]: 0.088; IC50 [5]: < 100 nM
2 | COc1cc(N2CCC(N3CCN(C)CC3)CC2)ccc1Nc1ncc(Cl)c(Nc2ccccc2P(C)(C)=O)n1 [Brigatinib] | stable | 2.10 ± 0.12 ng/mL | 1.90 ± 0.10 ng/mL | 1.94 ± 0.09 ng/mL | 2.05 ± 0.17 ng/mL | 1585.06 ± 98.31 ng/mL | 1645.17 ± 118.52 ng/mL | 1678.34 ± 95.87 ng/mL | 1719.73 ± 107.09 ng/mL | 5.66 ± 1.94 L/kg | 4360 ng·h/mL | 538 ± 186 ng/mL | 6.73 h | 4.33 h | 3.16 ± 0.343 h | 22 ± 10 mL/min/kg | 1.06 ± 0.08 ng/mL | 0.96 ± 0.05 ng/mL | 1.02 ± 0.06 ng/mL | 0.97 ± 0.06 ng/mL | Measured conc. after ambient temperature for 6 h ([3]; spiked 800 ng/mL): 788.85 ± 69.25 ng/mL; Measured conc. after autosampler at 4°C for 24 h ([3]; spiked 800 ng/mL): 813.16 ± 72.23 ng/mL; Measured conc. after three freeze-thaw cycles ([3]; spiked 800 ng/mL): 847.44 ± 57.65 ng/mL; Measured conc. after −20°C for 10 d ([3]; spiked 800 ng/mL): 760.29 ± 48.33 ng/mL; blood-brain barrier penetration [4]: could both penetrate the blood-brain barrier; Cmax [4]: 68.9 ± 21.6 ng/g; MRT [4]: 7.48 h; Tmax [4]: 5.5 h; half-life [4]: 5.32 ± 1.95 h; AUC(0–t) [4]: 58255.81 ± 13725.10 ng·min/g; Kp [4]: 0.223; IC50 [5]: < 100 nM
